Experimental data as given in ChEMBL document CHEMBL5050844 (2019).

Experiments:
Format in all cases: functional
[1] = Induction of anti-CD3 antibodies-stimulated human CD8+ T cell activation in immunocompetent mouse assessed fold increase in CD25 expression at 90 mg/kg, ip administered twice a day
[2] = Induction of anti-CD3 antibodies-stimulated human T cell activation in immunocompetent mouse assessed fold increase in IL-2 secretion at 90 mg/kg, ip administered twice a day
[3] = Induction of anti-CD3 antibodies-stimulated human T cell activation in immunocompetent mouse assessed fold increase in IL-2 secretion at 90 mg/kg, ip administered thrice a day
[4] = Induction of anti-CD3 antibodies-stimulated human T cell activation in immunocompetent mouse assessed fold increase in IFN-gamma secretion at 90 mg/kg, ip administered twice a day
[5] = Induction of anti-CD3 antibodies-stimulated human T cell activation in immunocompetent mouse assessed fold increase in IFN-gamma secretion at 90 mg/kg, ip administered thrice a day
[6] = Induction of anti-CD3 antibodies-stimulated human T cell activation in immunocompetent mouse assessed fold increase in TNFalpha secretion at 90 mg/kg, ip administered twice a day
[7] = Induction of anti-CD3 antibodies-stimulated human T cell activation in immunocompetent mouse assessed fold increase in TNF-alpha secretion at 90 mg/kg, ip administered thrice a day
[8] = Induction of anti-CD3 antibodies-stimulated human CD8+ T cell activation in immunocompetent mouse assessed fold increase in CD25 expression at 45 mg/kg, po administered twice a day
Note: reference of the scale not given here.

| Compound | fold change (FC) [1] | fold change (FC) [2] | fold change (FC) [3] | fold change (FC) [4] | fold change (FC) [5] | fold change (FC) [6] | fold change (FC) [7] | fold change (FC) [8] |
| --- | --- | --- | --- | --- | --- | --- | --- | --- |
| C[C@H](Sc1nncn1C)c1cccc(NC(=O)c2cccc(C(F)(F)F)n2)c1 | <1 | >2.5 | >2.5 | 1 | 2.01 | >2.5 | >2.5 | – |
| C[C@@H](Sc1nncn1C)c1cccc(NC(=O)c2cccc(C(F)(F)F)n2)c1 | <1 | <1 | <1 | <1 | <1 | 1 | <1 | – |
| Cc1cc(C(=O)Nc2cccc(C3(Cc4nncn4C)COC3)c2)nc(C2CC2)n1 | – | – | – | – | – | – | – | 1 |
| Cn1cnnc1CC1(c2cccc(N3Cc4c(cc(CN5CCC6(CC6)C5)cc4C(F)(F)F)C3=O)c2)COC1 | – | – | – | – | – | – | – | 1 |
